From US20080069815A1, “ANTI-OSTEOPONTIN ANTIBODY AND USE THEREOF” (IMMUNO-BIOLOGICAL LABORATORIES CO., LTD., priority 2001, published 2008)

What was measured:
[1] = system: mouse collagen arthritis model; assay: Mouse collagen arthritis model (arthritogenic antibody cocktail/LPS); type: in vivo; details: for Arthritis score: 3.2 mg/kg orally once daily; for Volume of leg edema / Body weight change / Quantity of feed intake: 3.2 mg/kg
Description: For arthritis induction, an arthritogenic antibody cocktail (under the trade name of a cocktail for arthritis, Arthrogen-CIA® mAb, Arthritogenic mAb cocktail; manufactured by Iwai Chemical Pharmaceutical Co., Ltd.) recognizing four epitopes specific to collagen was used. To a mouse was intravenously administered the arthritogenic cocktail; 3 days later, LPS (100 μg) was intraperitoneally administered to thereby elicit arthritis. Arthritis was observed on day 3 after LPS dosing, which reached maximum on day 6.
Immediately before LPS dosing and 3 days later, the M5 antibody was intravenously administered at a dose of 40 μg, 150 μg or 400 μg. As the control group, a rabbit IgG-dosed group (at a dose of 400 μg) was arranged. Additionally, the anti-mouse TNF-α antibody was intravenously administered at a dose of 200 μg/mouse immediately before LPS administration and 3 days later. As the control group, a rat IgG-dosed group (at a dose of 200 μg) was arranged. Further, MTX was orally given (at a dose of 3.2 mg/kg) once daily on the very day of LPS dosing and thereafter. Then, MTX dissolved in 5 ml of 0.5% methyl cellulose solution was used. For the control group, 5 ml of 0.5% methyl cellulose solution was arranged.
Assessment was done per one group of five animals, concerning four items, namely arthritis score, leg edema, body weight change and feed intake.

[2] = system: human fibroblast TIG-7 adhesion to OPN; assay: Inhibition of TIG-7 cell adhesion to OPN (CHO/OPN-a coated plate); type: cell-based; details: peptide 100 μg/ml; FIG. 1A
Description: It was examined by the following method as to whether or not the monoclonal antibodies inhibited cell adhesion to OPN. First, a 96-well plate was precoated with various concentrations of the CHO/OPN-a at 4° C. overnight, which was then treated with 0.5% BSA in PBS under conditions of 37° C. for 10 minutes, so as to block non-specific adhesion. A human fibroblast TIG-7 or SW480 cell transformed with the cDNA of an integrin subunit α9 (referred to as “α9-transformed SW480 cell” hereinafter) was suspended in D-MEM containing 0.25% BSA; 200 μl of the resulting cell suspension (at a cell concentration of 5×10^4 cells/well) was injected in a 96-well plate precoated with the CHO/OPN-a or nOPN, in the presence or absence of various concentrations of the monoclonal antibodies or synthetic peptides, for incubation at 37° C. for one hour.
The culture medium was discarded from the plate, and all the wells were rinsed twice with D-MEM containing 0.25% BSA. The adherent cells were fixed and stained with 0.5% crystal violet in 20% methanol for 30 minutes.
All the wells were rinsed three times with water, and the adherent cells were then solubilized into 20% acetic acid. The resulting supernatant recovered from each well was analyzed with an immunoreader, to measure the absorbance at 590 nm to determine the relative count of the cells adhering to the well. […]

[3] = system: α9-transformed SW480 cell adhesion to vitronectin; assay: Adhesion of α9-transformed SW480 cell to vitronectin; type: cell-based, human; details: 1 μg/ml vitronectin; 200 μM peptide; FIG. 2A
[4] = system: murine NIH3T3 cell adhesion to mOPN/de-GST; assay: Inhibition of NIH3T3 cell adhesion to murine OPN (mOPN/de-GST); type: cell-based, mouse; details: peptide 100 μg/ml; FIG. 7
Source text: It was examined by the method described in the reference (S. Kon et al., (2002): J. Cell. Biochem., 84(2), 420-432) as to whether or not the M5 antibody might inhibit cell adhesion to OPN. As the OPN, the full-length murine OPN was used, from which the GST moiety had preliminarily been removed with PreScission protease (Amersham Pharmacia Biotech, Tokyo, Japan) (referred to as “mOPN/de-GST” hereinafter) was used. As the cell, murine NIH3T3 cell was used.

Row | Compound | Overall effect in mouse arthritis model (arthritis score, onset of arthritis, leg edema) [1] | Arthritis score ([1]; day 3) | Arthritis score ([1]; day 4) | Arthritis score ([1]; day 5) | Arthritis score ([1]; day 6) | Volume of leg edema ([1]; Foreleg) [mL] | Volume of leg edema ([1]; Hind leg) [mL] | Body weight change ([1]; day 0 to day 3 post-dosing) [g] | Quantity of feed intake ([1]; day 0 to day 3 post-dosing) [g/mouse/day] | Body weight change ([1]; day 3 to day 6 post-dosing) [g] | Quantity of feed intake ([1]; day 3 to day 6 post-dosing) [g/mouse/day] | Inhibition of TIG-7 adhesion to OPN by peptide [2] | Inhibition of adhesion between vitronectin and α9-transformed SW480 cell by peptide [3] | Inhibition of NIH3T3 adhesion to mOPN/de-GST by peptide [4]
1 | CN(Cc1cnc2nc(N)nc(N)c2n1)c1ccc(C(=O)N[C@@H](CCC(=O)O)C(=O)O)cc1 [MTX] | almost no pharmaceutical efficacy | 0.8 ± 0.4 | 1.8 ± 0.7 | 6.0 ± 0.6 | 6.0 ± 0.6 | 0.047 ± 0.003 | 0.132 ± 0.003 | -1.5 | 0.8 | -1.8 | 2.1 |  |  | 
2 | GRGDSP |  |  |  |  |  |  |  |  |  |  |  | apparently inhibited | inhibited | apparently inhibited
